In patent US9340577B2, “HLA binding motifs and peptides and their uses” (priority 1992, dated 2016):
No end group written: not given here.

Legend:
Assay in all cases: biochemical
[1] = biological target: DR1 (DRB1*0101) (Homo sapiens, UniProt P01903+P01911, A100R/D57E/F55L/F60I/F76Y/I96L/L162R/M171V/P40L/Q125E/R42F/V115G/Y59C); format: binding
[2] = biological target: DR7 (DRB1*0701) (Homo sapiens, UniProt P01903+P01911, A100R/A102G/A103Q/D57E/D86V/E43K/F76Y/K127E/L162R/M171V/P40G/Q125H/Q99D/R33Q/R42Y/R54Q/S133A/S66F/T210M/V115G/Y107V/Y59L/Y89S); format: binding
[3] = biological target: DRB1*0301 (Homo sapiens, UniProt P01903+P01911, A100K/A102G/A103R/A169T/F55Y/I96L/K41T/L162R/M171V/P40S/Q125H/Q178H/Q39Y/R42S/S66N/T106N/T262R/W38E/Y61H); format: binding
[4] = biological target: DRB1*0405 (Homo sapiens, UniProt P01903+P01911, A100R/A169T/D86S/F76Y/I96L/K127E/L162R/M171V/N62H/P40V/Q125Y/R42H/S133A/S149N/S66Y/V115G/V209L/W38E); format: binding
[5] = biological target: DRB1*0802 (Homo sapiens, UniProt P01903+P01911, A100R/A103L/A169T/F76Y/H45Y/I96F/K41T/L162R/M171V/P40S/Q125H/Q178H/Q39Y/Q99D/R218S/R42G/S66Y/V115G/W38E); format: binding
[6] = biological target: DRB1*0901 (Homo sapiens, UniProt P01903+P01911, A100R/A103E/D57H/D86V/F55Y/F60I/F76Y/I96F/K127E/L162R/M171V/P40D/Q125H/Q99R/R33Q/R42F/S133A/S66N/T210M/V115G/W38K/Y107V/Y59G/Y89S); format: binding
[7] = biological target: DRB1*1201 (Homo sapiens, UniProt P01903+P01911, A100R/A169T/D57E/D86V/F55L/H45Y/K41T/L162R/M171V/P40S/Q125H/Q178H/Q39Y/Q99D/R42G/S66L/T262R/V114A/V67L/W38E/Y59H/Y61H/Y89S); format: binding
[8] = biological target: DRB1*1302 (Homo sapiens, UniProt P01903+P01911, A100E/A169T/K41T/L162R/M171V/P40S/Q125H/Q178H/Q39Y/Q99D/R42S/S66N/T262R/V115G/W38E/Y61H); format: binding
[9] = biological target: DRB1*1501 (Homo sapiens, UniProt P01903+P01911); format: binding
[10] = biological target: DRB3*0101 (Homo sapiens, UniProt P01903+P79483); format: binding
[11] = biological target: DRB4*0101 (Homo sapiens, UniProt P01903+P13762, G164S); format: binding
[12] = biological target: DRB1*1101 (Homo sapiens, UniProt P01903+P01911, A100R/A169T/A87E/I96F/K41T/L162R/M171V/P40S/Q125H/Q178H/Q39Y/Q99D/R42S/S66Y/T262R/V115G/W38E); details: Binding affinity DRB1 *1101
[13] = biological target: DRB5*0101 (Homo sapiens, UniProt P01903+Q30154); details: Binding affinity DRB5 *0101
[14] = biological target: DR4w4 (DRB1*0401) (Homo sapiens, UniProt P01903+P01911, A100K/A169T/F76Y/I96L/K127E/L162R/M171V/N62H/P40V/Q125Y/R42H/S133A/S149N/S66Y/V115G/V209L/W38E); format: binding

Chain of DRB1*1302 (P01903 26-254 limits assumed, other chains not shown): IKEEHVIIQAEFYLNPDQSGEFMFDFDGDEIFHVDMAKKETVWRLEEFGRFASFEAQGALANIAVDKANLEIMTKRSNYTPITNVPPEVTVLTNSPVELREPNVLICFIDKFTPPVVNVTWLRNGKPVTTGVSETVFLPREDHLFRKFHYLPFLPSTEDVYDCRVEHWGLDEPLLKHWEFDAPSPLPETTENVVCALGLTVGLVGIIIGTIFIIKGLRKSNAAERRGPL
Chain of DRB1*1101 (P01903 26-254 limits assumed, other chains not shown): as above
Chain of DRB1*0301 (P01903 26-254 limits assumed, other chains not shown): as above

Molecule | IC50 [1] | IC50 [2] | IC50 [3] | IC50 [4] | IC50 [5] | IC50 [6] | IC50 [7] | IC50 [8] | IC50 [9] | IC50 [10] | IC50 [11] | IC50 [12] | IC50 [13] | IC50 [14]
TRPRTLHELCEVLEE [Peptide 1543.42] | 18 µM | > 20 µM | > 20 µM | 0.674 µM | > 20 µM | > 20 µM | > 20 µM | > 20 µM | > 20 µM | > 20 µM | 2.59 µM | > 20 µM | > 20 µM | 
CC[C@H](C)[C@H](NC(=O)CNC(=O)[C@H](Cc1ccc(O)cc1)NC(=O)[C@H](CC(C)C)NC(=O)[C@H](CO)NC(=O)[C@H](CC(C)C)NC(=O)[C@H](CC(C)C)NC(=O)[C@H](CO)NC(=O)[C@@H](N)CC(C)C)C(=O)N[C@@H](Cc1c[nH]cn1)C(=O)N[C@@H](CCCCN)C(=O)N[C@@H](CCC(N)=O)C(=O)N[C@@H](CCCCN)C(=O)N[C@@H](CCC(=O)O)C(=O)N[C@@H](CCCCN)C(=O)O [Peptide 68.0045] |  | > 20 µM | > 20 µM |  |  |  | 0.647 µM | > 20 µM |  | > 20 µM |  |  |  | 
PDGQAEQATSNYYIV [Peptide 1543.43] | > 20 µM | 0.051 µM | > 20 µM | 5.12 µM | > 20 µM | 2.33 µM | > 20 µM | > 20 µM | > 20 µM | > 20 µM | > 20 µM |  | > 20 µM | 
RREVYDFAFRDLCIV [Peptide 1543.25] | > 20 µM | 0.073 µM | 11 µM |  | 9.03 µM | > 20 µM | 11 µM | > 20 µM | > 20 µM | > 20 µM | 2.46 µM | > 20 µM | 19.8 µM | 4.03 µM
NGVLQGITSWGPEPC [Peptide 68.0017] |  |  | 8.43 µM |  | > 20 µM | > 20 µM | > 20 µM | > 20 µM |  | > 20 µM |  | > 20 µM | > 20 µM | 
CSCC[C@H](NC(=O)[C@H](CC(=O)O)NC(=O)[C@H](Cc1ccc(O)cc1)NC(=O)[C@H](CC(C)C)NC(=O)[C@@H]1CCCN1C(=O)[C@H](Cc1c[nH]cn1)NC(=O)[C@@H]1CCCN1C(=O)[C@H](Cc1ccccc1)NC(=O)[C@H](CO)NC(=O)[C@H](Cc1c[nH]cn1)NC(=O)[C@H](CO)NC(=O)[C@@H](NC(=O)[C@H](CCC(N)=O)NC(=O)[C@H](Cc1ccccc1)NC(=O)[C@@H](N)C(C)C)C(C)C)C(=O)O [Peptide 68.0070] |  |  | > 20 µM |  |  |  | 2.48 µM |  |  | > 20 µM | > 20 µM |  |  | 
RFHNIMGRWTGRCSE [Peptide 1543.60] | 0.0056 µM |  | 5.48 µM | 1.84 µM | 0.027 µM | 8.86 µM | 18.3 µM |  | 0.123 µM | 7.84 µM | 1.12 µM | 0.024 µM | 0.374 µM | 0.332 µM
EYVLDLYPEPTDLYC [Peptide 1543.12] | 9.08 µM | > 20 µM | 0.76 µM | 5.88 µM | > 20 µM | > 20 µM | 2.21 µM | > 20 µM | 13 µM | 0.734 µM | 0.159 µM | > 20 µM | > 20 µM | 
CC(C)C[C@H](NC(=O)[C@H](CC(=O)O)NC(=O)[C@@H](NC(=O)[C@@H](NC(=O)[C@H](CCC(=O)O)NC(=O)[C@@H]1CCCN1C(=O)[C@H](CCC(N)=O)NC(=O)[C@H](CC(C)C)NC(=O)[C@H](CC(=O)O)NC(=O)[C@@H](N)CC(C)C)[C@@H](C)O)[C@@H](C)O)C(=O)N[C@@H](Cc1ccc(O)cc1)C(=O)N[C@@H](CS)C(=O)N[C@@H](Cc1ccc(O)cc1)C(=O)N[C@@H](CCC(=O)O)C(=O)N[C@@H](CCC(N)=O)C(=O)O [Peptide 1543.04] | > 20 µM | > 20 µM | 0.59 µM | > 20 µM | > 20 µM | > 20 µM | > 20 µM | > 20 µM | > 20 µM | > 20 µM |  | > 20 µM | > 20 µM | 1.9 µM
